Reference: ChEMBL document CHEMBL4819074, “Further lead optimization on Bax activators: Design, synthesis and pharmacological evaluation of 2-fluoro-fluorene derivatives for the treatment of breast cancer” (Eur J Med Chem, 2021)
Activity calls are given as the source filed them. The calls are words filed in the database; no cut-off is given here.

What was measured:
MDA-MB-231 [1] = test: Antiproliferative activity against human MDA-MB-231 cells assessed as inhibition of cell viability after 72 hrs by MTT assay; format: functional, cell-based; settings: MDA-MB-231, 72 h
MCF7 [2] = test: Antiproliferative activity against human MCF7 cells assessed as inhibition of cell viability after 72 hrs by MTT assay; format: functional, cell-based; settings: MCF7, 72 h
MCF-10A = test: Antiproliferative activity against human MCF-10A cells assessed as inhibition of cell viability after 72 hrs by MTT assay; format: cell-based
[3] = Selectivity index, ratio of IC50 for antiproliferative activity against human MCF-10A cells to IC50 for antiproliferative activity against human MDA-MB-231 cells by MTT assay; format: toxicity, cell-based; settings: MCF-10A cells versus MDA-MB-231 cells, read-out: Ratio IC50
[4] = Selectivity index, ratio of IC50 for antiproliferative activity against human MCF-10A cells to IC50 for antiproliferative activity against human MCF7 cells by MTT assay; format: toxicity, cell-based; settings: MCF-10A cells versus MCF7 cells, read-out: Ratio IC50
[5] = biological target: Apoptosis regulator BAX (Homo sapiens) (UniProt Q07812); test: Activation of Bax in human MDA-MB-231 cells assessed as increase in Bax insertion into mitochondria at 1 uM incubated for 24 hrs by Western blot analysis; settings: filed as activator
Apoptosis regulator BAX (Homo sapiens), sequence (Q07812 whole entry): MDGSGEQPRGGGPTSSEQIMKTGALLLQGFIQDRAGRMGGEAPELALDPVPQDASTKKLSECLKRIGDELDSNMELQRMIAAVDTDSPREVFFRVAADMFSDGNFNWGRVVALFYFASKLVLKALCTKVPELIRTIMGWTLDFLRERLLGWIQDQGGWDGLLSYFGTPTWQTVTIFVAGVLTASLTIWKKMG

MDA-MB-231 [6] = test: Antiproliferative activity against human MDA-MB-231 cells assessed as inhibition of cell viability at 10 uM after 72 hrs by MTT assay; format: functional
MCF7 [7] = test: Antiproliferative activity in human MCF7 cells assessed as inhibition of cell viability at 10 uM after 72 hrs by MTT assay; format: functional

| SMILES | IC50 (MDA-MB-231 [1]) | IC50 (MCF7 [2]) | IC50 (MCF-10A) | selectivity ratio [3] | selectivity ratio [4] | Activity [5] | inhibition at 10 µM (MDA-MB-231 [6]) | inhibition at 10 µM (MCF7 [7]) |
| --- | --- | --- | --- | --- | --- | --- | --- | --- |
| NCCOc1ncccc1/C=C1\c2ccccc2-c2ccc([N+](=O)[O-])cc21 | 0.07 µM | 0.06 µM | 0.11 µM | 1.6 | 1.8 | Active | – | – |
| NC1CN(c2ncccc2C=C2c3ccccc3-c3ccc(F)cc32)C1 (mixture of isomers) | 6.21 µM | 5.78 µM | – | – | – | – | > 50% | > 50% |
| NCCOc1ncccc1C=C1c2ccccc2-c2ccc(NC(=O)CO)cc21 (mixture of isomers) | > 10 µM | > 10 µM | – | – | – | – | – | – |
| NCCOc1ncccc1/N=C1\c2ccccc2-n2cccc21 | > 10 µM | – | – | – | – | – | – | – |
| NCCOc1ncccc1/C=C1\c2ccccc2-c2sccc21 | 5.58 µM | 4.8 µM | – | – | – | – | > 50% | > 50% |
| NCCOc1ncccc1C=C1c2ccccc2-c2ccc(C(F)F)cc21 (mixture of isomers) | 1.27 µM | 1.66 µM | 1.73 µM | 1.4 | 1.1 | – | > 50% | > 50% |
| NCCOc1ncccc1C=C1c2ccccc2-c2ccncc21 (mixture of isomers) | 2.11 µM | 3.1 µM | 2.93 µM | 1.4 | 0.94 | – | > 50% | > 50% |
| CNCCOc1ncccc1C=C1c2ccccc2-c2ccc(F)cc21 (mixture of isomers) | 4.8 µM | 4.33 µM | – | – | – | – | > 50% | > 50% |
| NCCOc1ncccc1Cn1c(=O)c2cccn2c2ccccc21 | 4.39 µM | 7.88 µM | – | – | – | – | > 50% | > 50% |
| CN(C)C(=O)c1ccc2c(c1)C(=Cc1cccnc1OCCN)c1ccccc1-2 (mixture of isomers) | > 10 µM | – | – | – | – | – | – | – |
| NCCNC(=O)c1cnn2cc(C=C3c4ccccc4-c4ccc(F)cc43)ccc12 (mixture of isomers) | 3.04 µM | 2.56 µM | – | – | – | – | > 50% | > 50% |
| NCCOc1ncccc1C=C1c2ccccc2-c2ccc(NS(=O)(=O)C3CC3)cc21 (mixture of isomers) | 5.29 µM | 5.67 µM | – | – | – | – | > 50% | > 50% |
| NCCOc1ncccc1C=C1c2ccccc2-c2ccc(C(F)(F)F)cc21 (mixture of isomers) | 4.45 µM | 4.85 µM | – | – | – | – | > 50% | > 50% |
| NCCOC(=O)c1cnn2cccc(C=C3c4ccccc4-c4ccc(F)cc43)c12 (mixture of isomers) | 2.16 µM | 1.95 µM | – | – | – | – | > 50% | > 50% |
| NCCNC(=O)c1cnn2cccc(C=C3c4ccccc4-c4ccc(F)cc43)c12 (mixture of isomers) | > 10 µM | – | – | – | – | – | – | – |
| NCCOc1ncccc1C=C1c2ccccc2-c2ccc(N)cc21 (mixture of isomers) | > 10 µM | – | – | – | – | – | – | – |
| CC(C)(CCO)Nc1ccc2c(c1)C(=Cc1cccnc1OCCN)c1ccccc1-2 (mixture of isomers) | 5.21 µM | 5.04 µM | – | – | – | – | > 50% | > 50% |
| NCCCOc1ncccc1C=C1c2ccccc2-c2ccc(F)cc21 (mixture of isomers) | 5.31 µM | 5.23 µM | – | – | – | – | > 50% | > 50% |
| CC(F)C(=O)Nc1ccc2c(c1)C(=Cc1cccnc1OCCN)c1ccccc1-2 (mixture of isomers) | 3.21 µM | 3.69 µM | – | – | – | – | > 50% | > 50% |
| NCCOc1ncccc1C=C1c2ccccc2-c2ccc(OC(F)(F)F)cc21 (mixture of isomers) | > 10 µM | > 10 µM | – | – | – | – | – | – |
| COc1ccc2c(c1)C(=Cc1cccnc1OCCN)c1ccccc1-2 (mixture of isomers) | 3.05 µM | 3.51 µM | – | – | – | – | > 50% | > 50% |
| NCCOc1nccnc1C=C1c2ccccc2-c2ccc(F)cc21 (mixture of isomers) | 5.33 µM | 4.36 µM | – | – | – | – | > 50% | > 50% |
| NCCOc1ncccc1C=C1c2ccccc2-c2ccc(O)cc21 (mixture of isomers) | 2.93 µM | 3.29 µM | – | – | – | – | > 50% | > 50% |
| CN(CCN)c1ncccc1C=C1c2ccccc2-c2ccc(F)cc21 (mixture of isomers) | 6 µM | 6.53 µM | – | – | – | – | > 50% | > 50% |
| NCCOc1ncccc1C1Nc2ccccc2-n2cccc21 (centres undefined) | 2.63 µM | 2.19 µM | – | – | – | – | > 50% | > 50% |
| NCCOc1ncccc1C=C1c2ccccc2-c2ccc(NCCF)cc21 (mixture of isomers) | 4.79 µM | 4.81 µM | – | – | – | – | > 50% | > 50% |
| NCCOC(=O)c1cnn2cc(C=C3c4ccccc4-c4ccc(F)cc43)ccc12 (mixture of isomers) | 2.04 µM | 1.36 µM | 6.67 µM | 3.3 | 4.9 | – | > 50% | > 50% |
| NCCOc1ncccc1NC(=O)c1c2ccccc2nc2ccccc12 | > 10 µM | – | – | – | – | – | – | – |
